In ChEMBL document CHEMBL4325871 (Eur J Med Chem, 2019):
Active and inactive are the calls of the source. The calls are words filed in the database; no cut-off is given here.

How the values were obtained:
[1] = target: Aurora kinase B (Homo sapiens) (UniProt Q96GD4); test: Inhibition of human Aurora B assessed as residual activity at 1 uM using [H-LRRASLG] as substrate by [gamma-33P]-ATP assay relative to control
[2] = target: Serine/threonine-protein kinase/endoribonuclease IRE2 (Homo sapiens) (UniProt Q76MJ5); test: Inhibition of human ERN2 assessed as residual activity at 1 uM using MBP as substrate by [gamma-33P]-ATP assay relative to control
[3] = target: Tyrosine-protein kinase ABL2 (Homo sapiens) (UniProt P42684); test: Inhibition of human ABL2 assessed as residual activity at 1 uM using EAIYAAPFAKKK as substrate by [gamma-33P]-ATP assay relative to control
[4] = target: Serine/threonine-protein kinase N2 (Homo sapiens) (UniProt Q16513); test: Inhibition of human PKN2 assessed as residual activity at 1 uM using KKLNRTLSVA as substrate by [gamma-33P]-ATP assay relative to control
[5] = target: Citron Rho-interacting kinase (Homo sapiens) (UniProt O14578); test: Inhibition of human STK21 assessed as residual activity at 1 uM using MBP as substrate by [gamma-33P]-ATP assay relative to control
[6] = target: Mitogen-activated protein kinase kinase kinase 10 (Homo sapiens) (UniProt Q02779); test: Inhibition of human MLK2 assessed as residual activity at 1 uM using MBP as substrate by [gamma-33P]-ATP assay relative to control
Mitogen-activated protein kinase kinase kinase 10 (Homo sapiens), sequence (Q02779 whole entry, looked up): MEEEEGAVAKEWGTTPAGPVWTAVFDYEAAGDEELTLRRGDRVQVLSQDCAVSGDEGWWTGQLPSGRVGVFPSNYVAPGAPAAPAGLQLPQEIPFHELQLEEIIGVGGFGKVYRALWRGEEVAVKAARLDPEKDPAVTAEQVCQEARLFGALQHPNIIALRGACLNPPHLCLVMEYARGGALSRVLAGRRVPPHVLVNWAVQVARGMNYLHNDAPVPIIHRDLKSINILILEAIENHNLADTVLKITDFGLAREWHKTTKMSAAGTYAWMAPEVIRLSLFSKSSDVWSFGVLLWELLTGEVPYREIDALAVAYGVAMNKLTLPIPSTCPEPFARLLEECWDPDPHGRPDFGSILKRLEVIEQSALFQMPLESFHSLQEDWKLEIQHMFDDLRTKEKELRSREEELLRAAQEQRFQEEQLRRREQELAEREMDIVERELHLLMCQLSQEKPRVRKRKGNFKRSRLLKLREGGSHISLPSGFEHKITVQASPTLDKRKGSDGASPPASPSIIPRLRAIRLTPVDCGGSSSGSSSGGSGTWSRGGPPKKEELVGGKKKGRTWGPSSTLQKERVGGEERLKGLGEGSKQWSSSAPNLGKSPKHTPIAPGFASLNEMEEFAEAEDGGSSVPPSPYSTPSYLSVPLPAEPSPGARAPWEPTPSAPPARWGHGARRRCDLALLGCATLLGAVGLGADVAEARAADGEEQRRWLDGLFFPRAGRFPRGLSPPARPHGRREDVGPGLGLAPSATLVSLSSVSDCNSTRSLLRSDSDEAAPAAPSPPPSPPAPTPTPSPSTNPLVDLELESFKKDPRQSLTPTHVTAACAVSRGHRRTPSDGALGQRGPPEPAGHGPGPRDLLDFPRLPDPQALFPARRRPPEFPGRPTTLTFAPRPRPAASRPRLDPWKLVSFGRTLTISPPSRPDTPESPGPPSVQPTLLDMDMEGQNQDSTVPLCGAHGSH

[7] = target: Calcium/calmodulin-dependent protein kinase type IV (Homo sapiens) (UniProt Q16566); test: Inhibition of human CAMK4 assessed as residual activity at 1 uM using KKLNRTLSFAEPG as substrate by [gamma-33P]-ATP assay relative to control
[8] = target: Serine/threonine-protein kinase PLK3 (Homo sapiens) (UniProt Q9H4B4); test: Inhibition of human PLK3 assessed as residual activity at 1 uM using casein as substrate by [gamma-33P]-ATP assay relative to control
Serine/threonine-protein kinase PLK3 (Homo sapiens), sequence (Q9H4B4 whole entry, looked up, canonical isoform): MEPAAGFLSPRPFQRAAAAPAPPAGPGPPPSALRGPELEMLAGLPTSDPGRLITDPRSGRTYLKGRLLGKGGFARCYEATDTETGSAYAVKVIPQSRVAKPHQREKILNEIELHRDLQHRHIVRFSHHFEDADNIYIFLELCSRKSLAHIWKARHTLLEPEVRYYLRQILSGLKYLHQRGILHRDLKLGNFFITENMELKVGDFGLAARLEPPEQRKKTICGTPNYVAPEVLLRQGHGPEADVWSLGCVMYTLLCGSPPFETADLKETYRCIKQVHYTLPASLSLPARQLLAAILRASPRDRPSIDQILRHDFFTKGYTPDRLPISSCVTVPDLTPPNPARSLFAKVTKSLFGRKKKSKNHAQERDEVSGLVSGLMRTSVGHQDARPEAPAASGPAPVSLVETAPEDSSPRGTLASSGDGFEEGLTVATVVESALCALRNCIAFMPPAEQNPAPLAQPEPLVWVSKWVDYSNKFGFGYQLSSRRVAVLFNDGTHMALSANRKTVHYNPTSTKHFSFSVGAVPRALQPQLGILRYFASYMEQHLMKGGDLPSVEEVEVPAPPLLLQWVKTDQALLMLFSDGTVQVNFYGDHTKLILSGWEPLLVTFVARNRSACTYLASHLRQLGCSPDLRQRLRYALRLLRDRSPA

[9] = target: Casein kinase I isoform epsilon (Homo sapiens) (UniProt P49674); test: Inhibition of human CK1E assessed as residual activity at 1 uM using KRRRAL[pS]VASLPGL as substrate by [gamma-33P]-ATP assay relative to control
[10] = target: T1, Serine/threonine-protein kinase Chk1 (Homo sapiens) (UniProt O14757); test: Inhibition of CHK1 phosphorylation at S296 residue in human HCT116 cells at 20 uM after 8 hrs by Western blot analysis; assay type: cell-based
T1 sequence (whole entry): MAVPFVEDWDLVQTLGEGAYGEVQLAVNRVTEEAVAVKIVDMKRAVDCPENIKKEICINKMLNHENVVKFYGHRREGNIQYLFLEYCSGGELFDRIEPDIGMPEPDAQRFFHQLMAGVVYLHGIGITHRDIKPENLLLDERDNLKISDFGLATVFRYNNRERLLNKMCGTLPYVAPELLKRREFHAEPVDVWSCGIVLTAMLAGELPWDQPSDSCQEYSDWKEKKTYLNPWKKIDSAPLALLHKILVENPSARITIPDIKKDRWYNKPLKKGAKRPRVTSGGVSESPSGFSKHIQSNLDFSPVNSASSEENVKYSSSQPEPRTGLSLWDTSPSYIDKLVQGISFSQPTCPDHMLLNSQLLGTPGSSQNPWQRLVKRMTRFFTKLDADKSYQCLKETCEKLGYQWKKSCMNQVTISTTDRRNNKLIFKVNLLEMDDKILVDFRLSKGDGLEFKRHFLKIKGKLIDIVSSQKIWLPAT

[11] = target: Mitogen-activated protein kinase 15 (Homo sapiens) (UniProt Q8TD08); test: Inhibition of human ERK7 assessed as residual activity at 1 uM using MBP as substrate by [gamma-33P]-ATP assay relative to control
Mitogen-activated protein kinase 15 (Homo sapiens), sequence (Q8TD08 whole entry): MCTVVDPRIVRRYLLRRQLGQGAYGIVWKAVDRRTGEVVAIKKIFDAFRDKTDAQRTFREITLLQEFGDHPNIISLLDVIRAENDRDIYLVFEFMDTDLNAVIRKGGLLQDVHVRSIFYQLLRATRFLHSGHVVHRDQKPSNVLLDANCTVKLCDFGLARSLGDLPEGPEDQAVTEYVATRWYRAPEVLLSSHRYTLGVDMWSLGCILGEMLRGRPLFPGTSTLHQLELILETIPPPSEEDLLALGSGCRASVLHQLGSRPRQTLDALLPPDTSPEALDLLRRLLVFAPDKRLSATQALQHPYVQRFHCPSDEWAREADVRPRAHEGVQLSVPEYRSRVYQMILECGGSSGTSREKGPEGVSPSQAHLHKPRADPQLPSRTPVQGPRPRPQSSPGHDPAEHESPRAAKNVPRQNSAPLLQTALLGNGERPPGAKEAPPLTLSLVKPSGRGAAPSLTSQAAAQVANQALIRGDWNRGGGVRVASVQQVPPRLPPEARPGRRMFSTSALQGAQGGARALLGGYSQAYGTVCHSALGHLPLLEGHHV

[12] = target: CDK7/Cyclin H/MNAT1 (Homo sapiens) (UniProt P51946+P50613+P51948); test: Inhibition of human CDK7/cyclin-H/MNAT1 assessed as residual activity at 1 uM using MBP as substrate by [gamma-33P]-ATP assay relative to control; assay type: protein-complex assay
[13] = target: Tyrosine-protein kinase JAK3 (Homo sapiens) (UniProt P52333); test: Inhibition of human JAK3 assessed as residual activity at 1 uM using poly[Glu:Tyr] (4:1) as substrate by [gamma-33P]-ATP assay relative to control
[14] = target: CDK6/cyclin D1 (Homo sapiens) (UniProt P24385+Q00534); test: Inhibition of human CDK6/cyclin-D1 assessed as residual activity at 1 uM using RB protein as substrate by [gamma-33P]-ATP assay relative to control; assay type: protein-complex assay
[15] = target: Inhibitor of nuclear factor kappa-B kinase subunit epsilon (Homo sapiens) (UniProt Q14164); test: Inhibition of human IKKepsilon assessed as residual activity at 1 uM using casein as substrate by [gamma-33P]-ATP assay relative to control
[16] = target: Dual specificity protein kinase CLK2 (Homo sapiens) (UniProt P49760); test: Inhibition of human CLK2 assessed as residual activity at 1 uM using MBP as substrate by [gamma-33P]-ATP assay relative to control
[17] = target: Calcium/calmodulin-dependent protein kinase kinase 2 (Homo sapiens) (UniProt Q96RR4); test: Inhibition of human CAMKK2 assessed as residual activity at 1 uM using MBP as substrate by [gamma-33P]-ATP assay relative to control
[18] = target: Maternal embryonic leucine zipper kinase (Homo sapiens) (UniProt Q14680); test: Inhibition of human MELK assessed as residual activity at 1 uM using KKLNRTLSFAEPG as substrate by [gamma-33P]-ATP assay relative to control
Maternal embryonic leucine zipper kinase (Homo sapiens), sequence (Q14680 whole entry, looked up): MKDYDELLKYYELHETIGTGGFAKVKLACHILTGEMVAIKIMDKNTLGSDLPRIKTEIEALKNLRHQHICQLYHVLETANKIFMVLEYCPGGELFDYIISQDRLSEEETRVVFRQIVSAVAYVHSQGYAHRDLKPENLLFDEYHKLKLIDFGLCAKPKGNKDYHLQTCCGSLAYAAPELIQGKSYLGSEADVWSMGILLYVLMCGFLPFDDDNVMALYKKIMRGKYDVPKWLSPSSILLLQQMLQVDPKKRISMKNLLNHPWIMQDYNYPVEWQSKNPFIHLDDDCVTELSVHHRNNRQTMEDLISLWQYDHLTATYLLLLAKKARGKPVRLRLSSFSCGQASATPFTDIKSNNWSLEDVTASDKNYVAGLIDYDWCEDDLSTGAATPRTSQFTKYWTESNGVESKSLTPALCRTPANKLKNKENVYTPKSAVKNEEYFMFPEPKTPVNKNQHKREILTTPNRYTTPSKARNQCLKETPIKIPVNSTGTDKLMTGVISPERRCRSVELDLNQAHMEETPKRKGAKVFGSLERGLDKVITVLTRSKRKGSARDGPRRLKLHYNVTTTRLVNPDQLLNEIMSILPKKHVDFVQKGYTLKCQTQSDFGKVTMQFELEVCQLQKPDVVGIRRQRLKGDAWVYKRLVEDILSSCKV

[19] = target: Serine/threonine-protein kinase Nek6 (Homo sapiens, UniProt Q9HC98); test: Inhibition of human NEK6 assessed as residual activity at 1 uM using casein as substrate by [gamma-33P]-ATP assay relative to control
[20] = target: Ephrin type-A receptor 6 (Homo sapiens) (UniProt Q9UF33); test: Inhibition of human EPHA6 assessed as residual activity at 1 uM using poly[Glu:Tyr] (4:1) as substrate by [gamma-33P]-ATP assay relative to control
Ephrin type-A receptor 6 (Homo sapiens), sequence (Q9UF33 whole entry): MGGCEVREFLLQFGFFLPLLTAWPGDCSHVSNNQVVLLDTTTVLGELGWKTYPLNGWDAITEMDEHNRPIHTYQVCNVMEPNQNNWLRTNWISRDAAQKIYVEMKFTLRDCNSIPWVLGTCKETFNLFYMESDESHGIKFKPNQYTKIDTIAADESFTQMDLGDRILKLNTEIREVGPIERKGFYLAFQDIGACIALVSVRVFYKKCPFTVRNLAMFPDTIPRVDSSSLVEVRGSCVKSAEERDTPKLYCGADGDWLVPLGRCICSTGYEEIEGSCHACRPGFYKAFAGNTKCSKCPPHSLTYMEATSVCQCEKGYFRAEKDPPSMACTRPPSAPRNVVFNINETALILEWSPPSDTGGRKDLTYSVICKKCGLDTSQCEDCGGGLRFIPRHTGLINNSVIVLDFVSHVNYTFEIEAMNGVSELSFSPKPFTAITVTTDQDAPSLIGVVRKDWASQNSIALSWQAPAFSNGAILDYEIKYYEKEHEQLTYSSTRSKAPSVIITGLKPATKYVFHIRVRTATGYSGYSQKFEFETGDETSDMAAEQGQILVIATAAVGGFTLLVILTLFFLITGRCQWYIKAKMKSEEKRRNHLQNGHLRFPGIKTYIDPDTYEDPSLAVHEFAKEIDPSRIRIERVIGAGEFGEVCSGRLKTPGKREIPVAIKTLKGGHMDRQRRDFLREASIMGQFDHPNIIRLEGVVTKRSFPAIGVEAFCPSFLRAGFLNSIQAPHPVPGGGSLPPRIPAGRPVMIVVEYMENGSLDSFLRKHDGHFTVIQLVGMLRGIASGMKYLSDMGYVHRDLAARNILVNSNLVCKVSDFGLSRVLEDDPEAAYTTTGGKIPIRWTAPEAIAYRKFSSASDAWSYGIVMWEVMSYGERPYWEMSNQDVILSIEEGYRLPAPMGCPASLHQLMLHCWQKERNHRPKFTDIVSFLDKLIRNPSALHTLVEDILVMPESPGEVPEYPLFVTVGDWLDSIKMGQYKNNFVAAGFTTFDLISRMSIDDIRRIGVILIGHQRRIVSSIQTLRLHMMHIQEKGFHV

[21] = target: MAP/microtubule affinity-regulating kinase 3 (Homo sapiens) (UniProt P27448); test: Inhibition of human MARK3 assessed as residual activity at 1 uM using KKKVSRSGLYRSPSMPENLNRPR as substrate by [gamma-33P]-ATP assay relative to control
MAP/microtubule affinity-regulating kinase 3 (Homo sapiens), sequence (P27448 whole entry, looked up): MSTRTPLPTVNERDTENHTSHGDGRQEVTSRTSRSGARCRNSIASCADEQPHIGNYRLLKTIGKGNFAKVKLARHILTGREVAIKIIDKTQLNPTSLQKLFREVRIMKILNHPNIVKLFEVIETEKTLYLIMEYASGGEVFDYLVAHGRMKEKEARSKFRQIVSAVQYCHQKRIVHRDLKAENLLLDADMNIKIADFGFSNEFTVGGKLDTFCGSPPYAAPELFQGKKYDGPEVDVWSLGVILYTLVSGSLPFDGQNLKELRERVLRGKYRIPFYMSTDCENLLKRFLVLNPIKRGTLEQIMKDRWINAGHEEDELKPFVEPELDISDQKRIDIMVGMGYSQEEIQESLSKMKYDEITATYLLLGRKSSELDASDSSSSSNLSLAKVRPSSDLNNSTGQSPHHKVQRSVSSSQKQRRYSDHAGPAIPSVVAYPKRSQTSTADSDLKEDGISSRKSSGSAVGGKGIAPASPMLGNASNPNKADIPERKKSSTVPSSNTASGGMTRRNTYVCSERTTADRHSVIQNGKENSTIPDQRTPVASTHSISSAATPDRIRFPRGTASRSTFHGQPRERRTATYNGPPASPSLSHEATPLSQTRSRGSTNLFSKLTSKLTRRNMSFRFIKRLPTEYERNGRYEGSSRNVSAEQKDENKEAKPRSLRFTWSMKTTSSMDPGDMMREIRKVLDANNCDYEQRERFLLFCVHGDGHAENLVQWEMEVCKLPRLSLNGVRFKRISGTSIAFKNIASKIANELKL

[22] = target: Leucine-rich repeat serine/threonine-protein kinase 2 (Homo sapiens) (UniProt Q5S007); test: Inhibition of human LRRK2 assessed as residual activity at 1 uM using RLGRDKYKTLRQIRQ as substrate by [gamma-33P]-ATP assay relative to control
[23] = target: Serine/threonine-protein kinase N3 (Homo sapiens) (UniProt Q6P5Z2); test: Inhibition of human PKN3 assessed as residual activity at 1 uM using KKLNRTLSVA as substrate by [gamma-33P]-ATP assay relative to control

Aurora kinase B (Homo sapiens), sequence (Q96GD4 whole entry): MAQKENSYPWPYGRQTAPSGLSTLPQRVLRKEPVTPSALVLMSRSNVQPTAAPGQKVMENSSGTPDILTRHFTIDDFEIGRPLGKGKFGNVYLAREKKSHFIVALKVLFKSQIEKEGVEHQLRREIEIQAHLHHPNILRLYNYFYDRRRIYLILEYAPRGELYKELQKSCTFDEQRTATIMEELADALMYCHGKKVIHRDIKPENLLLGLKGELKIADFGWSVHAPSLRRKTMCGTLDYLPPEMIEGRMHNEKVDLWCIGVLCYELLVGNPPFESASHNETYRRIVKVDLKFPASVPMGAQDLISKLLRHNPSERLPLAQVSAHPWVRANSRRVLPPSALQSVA

Compound: C(=C\c1ccccc1)/C[N+]12CN3CN(CN(C3)C1)C2
- Activity [1]: 95.1 to 95.4%
- Activity [2]: 94.5 to 96.6%
- Activity [3]: 93.5 to 96.7%
- Activity [4]: 95.9 to 108%
- Activity [5]: 92.4 to 95.5%
- Activity [6]: 96 to 96.1%
- Activity [7]: 92.2 to 94.4%
- Activity [8]: 96.3 to 96.8%
- Activity [9]: 90.1 to 93.2%
- inhibition [10]: inactive
- Activity [11]: 95 to 96.7%

Compound: ClC/C=C/C[N+]12CN3CN(CN(C3)C1)C2
- Activity [12]: 97.4 to 97.9%
- Activity [13]: 94.2 to 96.6%
- Activity [14]: 97.5 to 97.7%
- Activity [15]: 111 to 113%
- Activity [16]: 93.9 to 94.5%
- Activity [17]: 83.7 to 87.4%
- Activity [18]: 93.8 to 96.1%
- Activity [19]: 95.3 to 95.6%
- Activity [20]: 93.1 to 94%
- Activity [21]: 148 to 153%
- Activity [22]: 91.5 to 93.5%
- Activity [23]: 92.3 to 92.9%
